{
  "source": "patent US11549075B2",
  "about": "“Benzyl hemiformal-containing biodiesel mixtures” (LANXESS Deutschland GmbH, priority 2019, dated 2023)",
  "key": {"[1]": {"assay": "Solubility of benzyl hemiformal in petrodiesel without biodiesel content", "type": "physicochemical", "settings": "for Solubility of benzyl hemiformal in petrodiesel 100%: undiluted BHF stirred into petrodiesel", "method": "1) Benzyl Hemiformal—Solubility in Petrodiesel without Biodiesel Content\nWhile stirring, BHF was mixed with petrodiesel in 0.01% steps. The following solubilities of BHF in petrodiesel were determined: […]"}, "[2]": {"assay": "Solubility of benzyl hemiformal in B7 diesel fuel (petrodiesel with 7% by volume of biodiesel)", "type": "physicochemical", "settings": "for Solubility of benzyl hemiformal in B7 diesel fuel: undiluted BHF", "from_the_text": "2) Benzyl Hemiformal—Solubility in B7 Diesel Fuel (Petrodiesel with 7% by Volume of Biodiesel)"}},
  "data": [
    {"smiles": "OCOCc1ccccc1", "note": "[benzyl hemiformal]", "values": [
      {"measurement": "Solubility of benzyl hemiformal in petrodiesel 100%", "setting": "[1]; 0.01 % BHF", "result": "dissolved to give clear solution"},
      {"measurement": "Solubility of benzyl hemiformal in petrodiesel 100%", "setting": "[1]; 0.02 % BHF", "result": "dissolved to give clear solution"},
      {"measurement": "Solubility of benzyl hemiformal in petrodiesel 100%", "setting": "[1]; 0.03 % BHF", "result": "undissolved fractions"},
      {"measurement": "Solubility of benzyl hemiformal in petrodiesel 100%", "setting": "[1]; 0.04 % BHF", "result": "undissolved fractions"},
      {"measurement": "Solubility of BHF in petrodiesel (in words)", "setting": "[1]; room temperature", "result": "only poorly soluble"},
      {"measurement": "Amount of undiluted BHF that can be incorporated into petrodiesel to give a clear solution", "setting": "[1]; undiluted BHF, petrodiesel without biodiesel", "result": "approx. 200 ppm"},
      {"measurement": "Solubility of benzyl hemiformal in B7 diesel fuel", "setting": "[2]; 0.01 % BHF", "result": "dissolved to give clear solution"},
      {"measurement": "Solubility of benzyl hemiformal in B7 diesel fuel", "setting": "[2]; 0.02 % BHF", "result": "dissolved to give clear solution"},
      {"measurement": "Solubility of benzyl hemiformal in B7 diesel fuel", "setting": "[2]; 0.03 % BHF", "result": "undissolved fractions"},
      {"measurement": "Solubility of benzyl hemiformal in B7 diesel fuel", "setting": "[2]; 0.04 % BHF", "result": "undissolved fractions"},
      {"measurement": "Amount of undiluted BHF that can be incorporated into B7 diesel fuel to give a clear solution", "setting": "[2]; B7 diesel fuel", "result": "approx. 200 ppm"}
    ]}
  ]
}
